Experiments:
[1] = system: neoplastic lung tissues; test: IHC targeting of GBP in lung cancer tissue arrays, overall; assay type: binding, human
Method: The 5 μm slides were dried in the oven at 60° C. for 1 h. Briefly, the sections were deparaffinized with xylene (J. T. Baker Phillipsburg, N) for 15 min and rehydrated in graded ethanol solutions. Endogenous peroxidase activity was blocked by incubating the sections in a 3% hydrogen peroxide solution in distilled water for 10 min. The sections were then washed and placed in phosphate buffer for 10 min. Antigen retrieval was achieved by heat treatment using 10 mM citrate buffer solution pH 6.0 or by 0.1% trypsin treatment for 5 min (for 10E4). After the slides were blocked in 3% BSA solution for 1 h and incubated with 2 μM eGFP-GBP fusion protein for 2 h (for eGFP), these sections were then incubated with 10E4 antibody (1:200 dilution) and eGFP antibody (1:200 dilution) at 4° C. overnight, individually. […]
Every tumor was given a score according to the intensity of the nuclear or cytoplasmic staining (no staining=0; weak staining=1; moderate staining=2; strong staining=3) and the extent of stained cells (0-10%=0; 11-50%=1; 51-80%=2; 81-100%=3). The final immunoreactive score was determined by multiplying the intensity and extent of positivity scores of stained cells, with the minimum score of 0 and a maximum score of 9.
Specimen scores from 61 cases of lung cancers from tissue arrays were used for quantitative evaluation of IHC data. […]

[2] = Fluorophore-assisted carbohydrate electrophoresis (FACE), GBP binding to glycosaminoglycans; conditions: LMWH, CS, DS; PBS, 25° C., 15 min; FIG. 1A
Method: (§1) Fluorophore-assisted carbohydrate electrophoresis (FACE) is carried out by pre-mixing (A) AMAC-labeled LMWH, chondroitin sulfate (CS), and dermatan sulfate (DS) and (B) AMAC-labeled LMWH, de-2-O-sulfated heparin, de-6-O-sulfated heparin, and N-acetyl-de-O-sulfated heparin (0.33 nmol) with indicated fold molar excess of GBP before incubated with or without peptide in PBS at 25° C. for 15 min. The reaction products are separated on a 1% agarose gel. The reacted probe and protein are shown above the gel. Relative intensity (%) of free probe and the unlabeled competitors are shown at the bottom of the gel.
(§2) Carbohydrate were labeled with 2-aminoacridone (AMAC) (Invitrogen, catalog no. A6289) according to previous study (Calabro, A., Benavides, M., Tammi, M., Hascall, V. C., and Midura, R. J. (2000) Microanalysis of enzyme digests of hyaluronan and chondroitin/dermatan sulfate by fluorophore-assisted carbohydrate electrophoresis (FACE), Glycobiology 10, 273-281). Briefly, fifty micrograms GAGs were dried by freeze-drying machine, and then incubated with 40 μl 1.25 M 2-aminoacridone (AMAC)/85% DMSO/15% acetic acid at 25° C. for 15 min. Forty microliters of 1.25 M sodium cyanoborohydride (NaBH3CN) was added and incubated at 37° C. for 16 h. Afterwards, 720 μl 99% ice-cold ethanol was added at −20° C. for 15 min, then centrifugation at 11,000×g at 4° C. for 5 min. […]

[3] = FACE, GBP binding to heparin and desulfated heparins; conditions: LMWH and desulfated heparins; FIG. 1B
Method: as §1, §2

With NYRWRCKNQN [GBP] the “GBP recognition, aggressive versus early stage of cancer” value [1] was “higher recognition toward more aggressive tumor progression”, the “GBP binding to glycosaminoglycans (FACE)” value [2] was “probed universal glycosaminoglycans including low molecular weight heparin, chondroitin sulfate and dermatan sulfate” and the “GBP recognition of sulfated HS / heparin derivatives (FACE)” value [3] was “identified sulfated HS, especially preferring O-sulfated heparin”.
